Several values for one entry are separate records, joined by “and”; a condition that tells them apart may be missing. Equal entries are not always repeated.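 Test compounds were applied to cells in 96-well plates for 48 hours at 5 doses. The concentration for full growth arrest is given as TGI.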
How the values were obtained:
Assay in all cases: NCI tumour cell line growth inhibition, 48 h
[1] = system: EKVX NSCLC
[2] = system: HCC-2998 colon
[3] = system: DLD-1 colon
[4] = system: DMS 114 small cell lung
[5] = system: DMS 273 small cell lung
[6] = system: HOP-18 NSCLC
[7] = system: KM20L2 colon
[8] = system: LXFL 529 NSCLC
[9] = system: SNB-78 CNS
[10] = system: M19-MEL melanoma

SMILES	TGI [1] [µM]	TGI [2]	other results
CCN(CC)C(=S)N/N=C(/C)c1cccc(/C(C)=N\NC(=S)N(CC)CC)n1	12.5	23.8 µM	–
Cc1ccc(N=Nc2c(O)ccc3cc(S(=O)(=O)O)cc(S(=O)(=O)O)c23)cc1	> 100	> 100 µM	–
COc1cc(C(=O)N(Cc2cccnc2)C(=S)N(Cc2cccnc2)C(=O)c2cc(OC)c(OC)c(OC)c2)cc(OC)c1OC	> 100	62.2 µM	–
CCOC(=O)N/N=C(/N)c1cccc([N+](=O)[O-])c1	> 100	> 100 µM	–
Cc1ccc(/C=C2\CCCc3ccccc3C2=O)cc1	60.9	–	–
O=C(O)Cc1cccc2c(=O)c3ccccc3oc12	> 100	46 µM	–
COC[C@@H](C[C@H]1O[C@@](O)([C@H](O)[C@@H]2C[C@H](OC)[C@@H](O)CC/C=C(C)/C=C/[C@@H](O[C@@H]3O[C@@H](C)[C@H](OC)[C@@H](O)[C@@H]3O)[C@H](C)/C=C(C)/C=C(C)/C=C(\C)C(=O)O2)[C@H](C)[C@@H](O)[C@H]1C)O[C@H]1C[C@](C)(O)[C@@H](O[C@H]2C[C@@H](OC)[C@H](O)[C@@H](C)O2)C(C)O1 (stereo partly drawn)	> 55.9	> 100 µM	–
Cc1cccc(N=NC(=O)NNc2cccc(C)c2C)c1C	–	31.7 µM	–
NC(Cc1ccccc1)C(=O)N[C@H]1c2ccsc2/C(=N/O)[C@H]1O (stereo partly drawn)	> 100	> 100 µM	–
O=C(N/N=C\c1cccc2c([N+](=O)[O-])cccc12)Nc1ccccc1	35.1	32 µM	–
Cc1c(S(=O)(=O)/N=C(\NO)Nc2ccc(Cl)c(Cl)c2)sc2ccc(Cl)cc12	27.4	44.6 µM	–
O=C(O)c1ccc([N+](=O)[O-])c2cc3cnccc3nc12	–	50.3 µM	–
O=C1/C(=N/O)Cc2c(Br)ccc(Br)c21	> 100	> 100 µM	–
O=C1C=CC[C@H]2O[C@@H](COC(=O)Cc3ccccc3)C[C@H]2O1	70.1	–	–
CN1CCC(O)(C(C)(C)C)CC1	> 100	> 100 µM	–
CCN(CC)CCNc1nc2ccc([N+](=O)[O-])cc2[n+]([O-])n1	–	44.8 µM	–
COc1cc(/C=C2/C[C@H]3[C@@H]4CC=C5C[C@@H](O)CC[C@]5(C)[C@H]4CC[C@]3(C)NC2=O)cc(OC)c1OC	> 92.8	25.8 µM	–
Nc1nc(N)c2ncn(-c3ccc(Cl)cc3)c2n1	> 100	> 100 µM	–
CCCCN1C(=O)N(c2ccc(OCC)cc2)C2N(CCCC)C1C(C)(C)C2(C)C (stereo not drawn)	50.6	> 100 µM	–

SMILES	TGI [1] [µM]	TGI [2]	other results
Cc1ccc2c(c1)C(C(=O)N[C@@H]1C(=O)N3[C@@H]1SC(C)(C)[C@@H]3C(=O)O)OCCC2 (stereo partly drawn)	> 100	> 100 µM	–
O=C1CC(=Nc2ccc(Cl)cc2)C(c2ccccc2)N1c1ccccc1 (stereo not drawn)	> 100	> 100 µM	–
CC(=O)OCC12C(=O)C[C@@H](C)C3(CC(c4ccoc4)OC3=O)C1CCC(OC(C)=O)C21CO1 (stereo partly drawn)	–	> 100 µM	–
O=c1[nH]nc(-c2ccccc2)c2[nH]c3c4ccccc4ccc3c12	> 100	4.81 µM	–
CSc1ccc2c(cc1=O)[C@@H](NC(=O)c1ccc(N)cc1)CCc1cc(O)c(O)c(O)c1-2	> 100	32.9 µM and 37.3 µM	–
COc1ccc(C2OC[C@H]3O[C@@H](OCc4ccccc4)[C@H](O)[C@@H](O)[C@@H]3O2)cc1 (stereo partly drawn)	> 100	> 100 µM	–
COc1cc(/C=C2\C(=O)N(c3ccccc3)C(c3ccccc3)S2(=O)=O)cc(OC)c1OC (stereo not drawn)	> 100	> 100 µM	–
NC(N)=N/N=C/c1c[nH]c2ccccc12	> 100	> 100 µM	TGI [3]: > 100 µM; TGI [4]: > 100 µM; TGI [5]: > 100 µM; TGI [6]: > 100 µM; TGI [7]: > 100 µM; TGI [8]: > 100 µM; TGI [9]: > 100 µM
O=Cc1c(C(=O)O)[nH]c(=O)[nH]c1=O	> 100	–	–
CCOP(C)(=O)C(N)Cc1ccc(OC)c(OC)c1 (stereo not drawn)	> 100	> 100 µM	–
COc1cccc(-c2ccc3c4c2O[C@H]2C(=O)CC[C@@]5(O)[C@@H](C3)N(CC3CC3)CC[C@]425)c1	41	–	–
O=C(NNC(=S)Nc1cccc(Cl)c1)c1cc(-c2ccccc2)nc2ccccc12	–	28.2 µM	–
Cn1cc(NC(=O)c2cc(NC(=O)CN=C(N)N)cn2C)cc1C(=O)NCCC(=N)N	> 100	> 100 µM	–
O=c1cc(-c2ccc(F)cc2)[nH]c2ncc(Cl)cc12	> 100	> 100 µM	–
Nc1cc2[nH]c(=O)c(=O)[nH]c2cc1N	> 100	> 100 µM	–
CC1OC(OC2C(O[C@H]3CC[C@@]4(C)C(=CC[C@H]5[C@@H]6C[C@@H]7O[C@]8(CC[C@@H](CO)CO8)[C@@H](C)[C@@H]7[C@@]6(C)CC[C@@H]54)C3)OC(CO)C(O)C2OC2OC(CO)C(O)C(O)C2O)C(O)C(O)C1O (stereo partly drawn)	3.96	2.97 µM	–
O=C1CCC(c2ccc(Cl)cc2)=NN1c1nsc2ccccc12	88.5	44.8 µM	TGI [4]: 87.9 µM; TGI [5]: 74.5 µM; TGI [6]: > 100 µM; TGI [7]: > 100 µM; TGI [8]: 81.4 µM; TGI [10]: > 100 µM; TGI [9]: 78.7 µM
COc1ccc(C(=C(Cl)c2ccccc2)c2ccc(OC)cc2)cc1	> 100	–	–

— PubChem BioAssay (NCI)
